Experimental data published in US6653306B1, “Epoxy-steroidal aldosterone antagonist and angiotensin II antagonist combination therapy” (G.D. Searle & Co., priority 1995, dated 2003).

Key:
rabbit aortic rings = assay: Assay B: In vitro vascular smooth muscle response for AII (antagonist activity, pA2); type: cell-based; conditions: Oryctolagus cuniculus, in vitro vascular smooth muscle response; two values per cell separated by / are separate determinations; read-out: Assay B pA2 (converted)
Protocol: Assay B: In Vitro Vascular Smooth Muscle-response for AII
The compounds of the invention were tested for antagonist activity in rabbit aortic rings. Male New Zealand white rabbits (2-2.5 kg) were sacrificed using an overdose of pentobarbital and exsanguinated via the carotid arteries. The thoracic aorta was removed, cleaned of adherent fat and connective tissue and then cut into 3-mm ring segments. The endothelium was removed from the rings by gently sliding a rolled-up piece of filter paper into the vessel lumen. The rings were then mounted in a water-jacketed tissue bath, maintained at 37° C., between moveable and fixed ends of a stainless steel wire with the moveable end attached to an FT03 Grass transducer coupled to a Model 7D Grass Polygraph for recording isometric force responses. The bath was filled with 20 ml of oxygenated (95% oxygen/5% carbon dioxide) Krebs solution of the following composition (mM): 130 NaCl, […], 15 KCl, 1.2 NaH2PO4, 1.2 MgSO4, 2.5 CaCl2, and 11.4 glucose. The preparations were equilibrated for one hour before approximately one gram of passive tension was placed on the rings. Angiotensin II concentration-response curves were then recorded (3×10^−10 to 1×10^−5 M). Each concentration of AII was allowed to elicit its maximal contraction, and then AII was washed out repeatedly for 30 minutes before rechallenging with a higher concentration of AII. Aorta rings were exposed to the test antagonist at […] for 5 minutes before challenging with AII. Adjacent segments of the same aorta ring were used for all concentration-response curves in the presence or absence of the test antagonist. The effectiveness of the test compound was expressed in terms of pA2 values and were calculated according to H. O. Schild [Br. J. Pharmacol, Chemother., 2,189-206 (1947)]. The pA2 value is the concentration of the antagonist which increases the EC50 value for AII by a factor of two. Each test antagonist was evaluated in aorta rings from two rabbits.

[1] = biological target: angiotensin II AT1 receptor; assay: Assay A: Angiotensin II binding activity (125I-AII displacement, rat uterine membrane preparation)
Protocol: Assay A: Antiotensin II Binding Activity
Compounds of the invention were tested for ability to bind to the smooth muscle angiotensin II receptor using a rat uterine membrane preparation. […] Rat uterine membranes were prepared from fresh tissue. All procedures were carried out at 4° C. Uteri were stripped of fat and homogenized in phosphate-buffered saline at pH 7.4 containing 5 mM EDTA. The homogenate was centrifuged at 1500×g for 20 min., and the supernatant was recentrifuged at 100,000×g for 60 min. The pellet was resuspended in buffer consisting of 2 mM EDTA and 50 mM Tris-HCl (pH 7.5) to a final protein concentration of 4 mg/ml. […] The reaction was initiated by the addition of membrane protein and the mixture was incubated at 25° C. for 60 min. The incubation was terminated with ice-cold 50 mM Tris-HCl (pH 7.5) and the mixture was filtered to separate membrane-bound labelled peptide from the free ligand. The incubation tube and filter were washed with ice-cold buffer. Filters were assayed for radioactivity in a Micromedic gamma counter.
Nonspecific binding was defined as binding in the presence of 10 μM of unlabelled AII. Specific binding was calculated as total binding minus nonspecific binding. […] Binding data were analyzed by a nonlinear least-squares curve fitting program.

pressor response to AII = assay: Assay C: In vivo intragastric pressor assay response for AII antagonists; set-up: species or system rat; conditions: dose 3 mg/kg, intragastric, or intraduodenal for examples listed; for inhibition at 3 mg/kg: Rattus norvegicus
Protocol: Assay C: In Vivo Intragastric Pressor Assay Response for AII Antagonists
Male Sprague-Dawley rats weighing 225-300 grams were anesthetized with methohexital (30 mg/kg, i.p.) and catheters were implanted into the femoral artery and vein. The catheters were tunneled subcutaneously to exit dorsally, posterior to the head and between the scapulae. The catheters were filled with heparin (1000 units/ml of saline). The rats were returned to their cage and allowed regular rat chow and water ad libitum. After full recovery from surgery (3-4 days), rats were placed in Lucite holders and the arterial line was connected to a pressure transducer. Arterial pressure was recorded on a Gould polygraph (mmHg). Angiotensin II was administered as a 30 ng/kg bolus via the venous catheter delivered in a 50 μl volume with a 0.2 ml saline flush. The pressor response in mm Hg was measured by the differer.-:e from pre-injection arterial pressure to the maximum pressure achieved. The AII injection was repeated every 10 minutes until three consecutive injections yielded responses within 4 mmHg of each other. These three responses were then averaged and represented the control response to AII. The test compound was suspended in 0.5% methylcellulose in water and was administered by gavage. The volume administered was 2 ml/kg body weight. The standard dose was 3 mg/kg. Angiotensin II bolus injections were given at 30, 45, 60, 75, 120, 150, and 180 minutes after gavage. The pressor response to AII was measured at each time point. The rats were then returned to their cage for future testing. A minimum of 3 days was allowed between tests. Percent inhibition was calculated for each time point following gavage by the following formula:
[(Control Response—Response at time point)/Control Response]×100.

SMILES | IC50 [1] [nM] | Kb (rabbit aortic rings) [nM] | inhibition at 3 mg/kg (pressor response to AII) [%] | Assay C Duration (pressor response to AII) [min]
CCCCCc1nc(CCCCC)n(Cc2ccc(-c3ccccc3-c3nnn[nH]3)cc2)n1 [Compound 13] | – | 2 | – | –
CCCCc1nc(CCC)nn1Cc1ccc(-c2ccccc2-c2nnn[nH]2)cc1 [Compound 14] | 7.2 | 1.45 | – | –
CCCCc1nc(CCC)n(Cc2ccc(-c3ccccc3-c3nnn[nH]3)cc2)n1 [Compound 15] | 16 | 4.9 | – | –
CCCCc1ncnn1Cc1ccc(-c2ccccc2C(=O)O)cc1 [Compound 18] | 970 | 724 | – | –
CCCCc1ncn(Cc2ccc(-c3ccccc3C(=O)O)cc2)n1 [Compound 19] | 12000 | 6610 | – | –
CCCCc1nc2c(O)nnc(CCC)c2n1Cc1ccc(-c2ccccc2-c2nn[nH]n2)cc1 [Compound 114] | – | 398 | – | –
CCCCc1nc2c(O)nncc2n1Cc1ccc(-c2ccccc2-c2nnn[nH]2)cc1 [Compound 116] | – | 316 | – | –
CCCCc1nc2cnncc2n1Cc1ccc(-c2ccccc2-c2nnn[nH]2)cc1 [Compound 117] | – | 316 | – | –
CCCCc1nc(CC(C)(C)C)n(Cc2ccc(-c3ccccc3-c3nnn[nH]3)nc2)n1 [Compound 250] | 43 | – | 0 | –
CCCCc1nc(-c2ccccc2Cl)nn1Cc1ccc(-c2ccccc2-c2nnn[nH]2)nc1 [Compound 267] | 25 | – | 25 | >180
CCCCc1nc(-c2ccccc2Cl)n(Cc2ccc(-c3ccccc3-c3nnn[nH]3)nc2)n1 [Compound 268] | 520 | – | 0 | –
CCCCc1cn(-c2ccccc2CC)c(=O)n1Cc1ccc(-c2ccccc2-c2nnn[nH]2)cc1 [Compound 271] | 14 | – | 20 | –
CCCCc1cn(-c2ccccc2C(C)C)c(=O)n1Cc1ccc(-c2ccccc2-c2nnn[nH]2)cc1 [Compound 272] | 97 | – | 70 | >180

More lines, in order of falling IC50 [1], values ahead:

IC50 [1] [nM] | SMILES | Kb (rabbit aortic rings) [nM] | inhibition at 3 mg/kg (pressor response to AII) [%] | Assay C Duration (pressor response to AII) [min]
6.4 | CCCCc1nc(CCC(C)C)n(Cc2ccc(-c3ccccc3-c3nnn[nH]3)cc2)n1 [Compound 16] | 1.12 | – | –
6 | CCCc1nc(CCC)n(Cc2ccc(-c3ccccc3-c3nnn[nH]3)cc2)n1 [Compound 12] | 2.19 | – | –
5 | CCCCc1cn(-c2c(CC)cccc2CC)c(=O)n1Cc1ccc(-c2ccccc2-c2nnn[nH]2)nc1 [Compound 234] | – | 20 | –
4.9 | CCCCc1cn([C@H]2[C@H](C)CCC[C@@H]2C)c(=O)n1Cc1ccc(-c2ccccc2-c2nnn[nH]2)nc1 [Compound 236] | – | 70 | >180
4.4 | CCCCc1cn(-c2c(C)cc(C)cc2C)c(=O)n1Cc1ccc(-c2ccccc2-c2nnn[nH]2)nc1 [Compound 232] | – | 70 | >180
4.4 | CCCCc1nc(CC(C)(C)C)nn1Cc1ccc(-c2ccccc2-c2nnn[nH]2)nc1 [Compound 249] | – | 20 | >180
4.1 | CCCCc1nc(C(=O)N(C)C(C)(C)C)n(Cc2ccc(-c3ccccc3-c3nnn[nH]3)nc2)n1 [Compound 256] | – | 30 | >180
4 | CCCCc1nc(CCC(C)C)nn1Cc1ccc(-c2ccccc2-c2nnn[nH]2)cc1 [Compound 17] | 2.29 | – | –
3.6 | CCCCc1cn(-c2c(C)cccc2Cl)c(=O)n1Cc1ccc(-c2ccccc2-c2nnn[nH]2)nc1 [Compound 231] | – | 75 | >180
2.6 | CCCCc1cn(-c2c(OC)cccc2OC)c(=O)n1Cc1ccc(-c2ccccc2-c2nnn[nH]2)nc1 [Compound 230] | – | 25 | >180
1.7 | CCCCc1cn(-c2cccn2CC)c(=O)n1Cc1ccc(-c2ccccc2-c2nnn[nH]2)nc1 [Compound 238] | – | 15 | >180
